Results taken from PubChem BioAssay AID1919002 (Molecular Pharmacology Branch, DTP, NCI, 2023).

Test system: 743489-274-T-PDC complex spheroid growth
Assay: Anticancer human tumor 743489-274-T-PDC patient-derived renal cell carcinoma cell line growth inhibition [AhR]
Conditions: for IC50: curve of first compound; for viability, T/C: stronger effect = lower value
Method in brief: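 Spheroids combined tumor cells with HUVEC endothelial cells and human MSCs as stroma. AhR antagonists were paired with standard or investigational drugs, each dosed in half-log steps down from near clinical Cmax, or from 10 microM where Cmax was unknown.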

[1] = second compound 0.1 µM, first compound 0.0316 µM
[2] = second compound 0.1 µM, first compound 0.1 µM
[3] = second compound 0.1 µM, first compound 0.316 µM
[4] = second compound 0.1 µM, first compound 1 µM
[5] = second compound 0.1 µM, first compound 3.16 µM
[6] = second compound 0.1 µM, first compound 10 µM
[7] = second compound 0.316 µM, first compound 0.0316 µM
[8] = second compound 0.316 µM, first compound 0.1 µM
[9] = second compound 0.316 µM, first compound 0.316 µM
[10] = second compound 0.316 µM, first compound 1 µM
[11] = second compound 0.316 µM, first compound 3.16 µM
[12] = second compound 0.316 µM, first compound 10 µM
[13] = second compound 1 µM, first compound 0.0316 µM
[14] = second compound 1 µM, first compound 0.1 µM
[15] = second compound 1 µM, first compound 0.316 µM
[16] = second compound 1 µM, first compound 1 µM
[17] = second compound 1 µM, first compound 3.16 µM
[18] = second compound 1 µM, first compound 10 µM
[19] = second compound 3.16 µM, first compound 0.0316 µM
[20] = second compound 3.16 µM, first compound 0.1 µM
[21] = second compound 3.16 µM, first compound 0.316 µM
[22] = second compound 3.16 µM, first compound 1 µM
[23] = second compound 3.16 µM, first compound 3.16 µM
[24] = second compound 3.16 µM, first compound 10 µM
[25] = second compound 10 µM, first compound 0.0316 µM
[26] = second compound 10 µM, first compound 0.1 µM
[27] = second compound 10 µM, first compound 0.316 µM
[28] = second compound 10 µM, first compound 1 µM
[29] = second compound 10 µM, first compound 3.16 µM
[30] = second compound 10 µM, first compound 10 µM
[31] = second compound 0.1 µM, first compound 0.00949 µM
[32] = second compound 0.1 µM, first compound 0.03 µM
[33] = second compound 0.1 µM, first compound 0.0949 µM
[34] = second compound 0.1 µM, first compound 0.3 µM
[35] = second compound 0.1 µM, first compound 0.949 µM
[36] = second compound 0.1 µM, first compound 3 µM
[37] = second compound 0.316 µM, first compound 0.00949 µM
[38] = second compound 0.316 µM, first compound 0.03 µM
[39] = second compound 0.316 µM, first compound 0.0949 µM
[40] = second compound 0.316 µM, first compound 0.3 µM
[41] = second compound 0.316 µM, first compound 0.949 µM
[42] = second compound 0.316 µM, first compound 3 µM
[43] = second compound 1 µM, first compound 0.00949 µM
[44] = second compound 1 µM, first compound 0.03 µM
[45] = second compound 1 µM, first compound 0.0949 µM
[46] = second compound 1 µM, first compound 0.3 µM
[47] = second compound 1 µM, first compound 0.949 µM
[48] = second compound 1 µM, first compound 3 µM
[49] = second compound 3.16 µM, first compound 0.00949 µM
[50] = second compound 3.16 µM, first compound 0.03 µM
[51] = second compound 3.16 µM, first compound 0.0949 µM
[52] = second compound 3.16 µM, first compound 0.3 µM
[53] = second compound 3.16 µM, first compound 0.949 µM
[54] = second compound 3.16 µM, first compound 3 µM
[55] = second compound 10 µM, first compound 0.00949 µM
[56] = second compound 10 µM, first compound 0.03 µM
[57] = second compound 10 µM, first compound 0.0949 µM
[58] = second compound 10 µM, first compound 0.3 µM
[59] = second compound 10 µM, first compound 0.949 µM
[60] = second compound 10 µM, first compound 3 µM
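Note: spheroids exposed to agents for 7 days before readout.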
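Throughout, for viability, T/C: 100% = DMSO vehicle control wells.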

CC1(C)CCC(CN2CCN(c3ccc(C(=O)NS(=O)(=O)c4ccc(NCC5CCOCC5)c([N+](=O)[O-])c4)c(Oc4cnc5[nH]ccc5c4)c3)CC2)=C(c2ccc(Cl)cc2)C1 + CC(CO)NC(=O)c1cc(-c2ccc(Cl)cc2)nn(-c2cnn(C)c2)c1=O
IC50 (second compound 0.1 µM): > 10 µM
IC50 (second compound 0.316 µM): > 10 µM
IC50 (second compound 1 µM): > 10 µM
IC50 (second compound 3.16 µM): > 10 µM
IC50 (second compound 10 µM): > 10 µM
viability, T/C [1]: 96.8%
viability, T/C [2]: 97.4%
viability, T/C [3]: 90.6%
viability, T/C [4]: 93.7%
viability, T/C [5]: 106%
viability, T/C [6]: 96.3%
viability, T/C [7]: 110%
viability, T/C [8]: 95%
viability, T/C [9]: 93.1%
viability, T/C [10]: 89%
viability, T/C [11]: 90.3%
viability, T/C [12]: 94.8%
viability, T/C [13]: 92%
viability, T/C [14]: 88.3%
viability, T/C [15]: 98.1%
viability, T/C [16]: 86%
viability, T/C [17]: 91.9%
viability, T/C [18]: 95.8%
viability, T/C [19]: 89.8%
viability, T/C [20]: 96.3%
viability, T/C [21]: 107%
viability, T/C [22]: 95.7%
viability, T/C [23]: 98.9%
viability, T/C [24]: 93.6%
viability, T/C [25]: 95.4%
viability, T/C [26]: 112%
viability, T/C [27]: 93.1%
viability, T/C [28]: 93.9%
viability, T/C [29]: 95%
viability, T/C [30]: 104%

CC1COCCN1c1cc(C2(S(C)(=N)=O)CC2)nc(-c2ccnc3[nH]ccc23)n1 (stereo not given) + CC(CO)NC(=O)c1cc(-c2ccc(Cl)cc2)nn(-c2cnn(C)c2)c1=O
IC50 (second compound 0.1 µM): > 10 µM
IC50 (second compound 0.316 µM): > 10 µM
IC50 (second compound 1 µM): > 10 µM
IC50 (second compound 3.16 µM): > 10 µM
IC50 (second compound 10 µM): > 10 µM
viability, T/C [1]: 97.5%
viability, T/C [2]: 89.1%
viability, T/C [3]: 94.7%
viability, T/C [4]: 92%
viability, T/C [5]: 98.7%
viability, T/C [6]: 96.7%
viability, T/C [7]: 90.2%
viability, T/C [8]: 99.5%
viability, T/C [9]: 96.3%
viability, T/C [10]: 86.2%
viability, T/C [11]: 85.3%
viability, T/C [12]: 91.3%
viability, T/C [13]: 99%
viability, T/C [14]: 84.7%
viability, T/C [15]: 95.3%
viability, T/C [16]: 101%
viability, T/C [17]: 87.4%
viability, T/C [18]: 93%
viability, T/C [19]: 92.7%
viability, T/C [20]: 86.8%
viability, T/C [21]: 86.1%
viability, T/C [22]: 90.3%
viability, T/C [23]: 84.5%
viability, T/C [24]: 103%
viability, T/C [25]: 109%
viability, T/C [26]: 94.2%
viability, T/C [27]: 89.9%
viability, T/C [28]: 83.3%
viability, T/C [29]: 93.7%
viability, T/C [30]: 102%

CCN(c1cc(-c2ccc(CN3CCOCC3)cc2)cc(C(=O)NCc2c(C)cc(C)[nH]c2=O)c1C)C1CCOCC1 + CC(CO)NC(=O)c1cc(-c2ccc(Cl)cc2)nn(-c2cnn(C)c2)c1=O
IC50 (second compound 0.1 µM): > 3 µM
IC50 (second compound 0.316 µM): > 3 µM
IC50 (second compound 1 µM): > 3 µM
IC50 (second compound 3.16 µM): > 3 µM
IC50 (second compound 10 µM): > 3 µM
viability, T/C [31]: 103%
viability, T/C [32]: 103%
viability, T/C [33]: 99.6%
viability, T/C [34]: 93.5%
viability, T/C [35]: 93.8%
viability, T/C [36]: 112%
viability, T/C [37]: 97.6%
viability, T/C [38]: 96.5%
viability, T/C [39]: 103%
viability, T/C [40]: 102%
viability, T/C [41]: 90.5%
viability, T/C [42]: 92.6%
viability, T/C [43]: 104%
viability, T/C [44]: 102%
viability, T/C [45]: 107%
viability, T/C [46]: 92.4%
viability, T/C [47]: 94%
viability, T/C [48]: 106%
viability, T/C [49]: 84.4%
viability, T/C [50]: 92.3%
viability, T/C [51]: 103%
viability, T/C [52]: 82.6%
viability, T/C [53]: 92.7%
viability, T/C [54]: 98.8%
viability, T/C [55]: 105%
viability, T/C [56]: 106%
viability, T/C [57]: 91.7%
viability, T/C [58]: 104%
viability, T/C [59]: 101%
viability, T/C [60]: 91.1%

Nc1ncn(C2CC(O)C(CO)S2)c(=O)n1 (stereo not given) + CC(CO)NC(=O)c1cc(-c2ccc(Cl)cc2)nn(-c2cnn(C)c2)c1=O
IC50 (second compound 0.1 µM): > 0.3 µM
IC50 (second compound 0.316 µM): > 0.3 µM
IC50 (second compound 1 µM): > 0.3 µM
IC50 (second compound 3.16 µM): > 0.3 µM
IC50 (second compound 10 µM): > 0.3 µM
viability, T/C (second compound 0.1 µM, first compound 0.000949 µM): 93.7%
viability, T/C (second compound 0.1 µM, first compound 0.003 µM): 111%
viability, T/C [31]: 102%
viability, T/C [32]: 96%
viability, T/C [33]: 96%
viability, T/C [34]: 114%
viability, T/C (second compound 0.316 µM, first compound 0.000949 µM): 103%
viability, T/C (second compound 0.316 µM, first compound 0.003 µM): 92.9%
viability, T/C [37]: 93%
viability, T/C [38]: 88%
viability, T/C [39]: 86.9%
viability, T/C [40]: 95.1%
viability, T/C (second compound 1 µM, first compound 0.000949 µM): 92.4%
viability, T/C (second compound 1 µM, first compound 0.003 µM): 89.3%
viability, T/C [43]: 91.7%
viability, T/C [44]: 101%
viability, T/C [45]: 87.7%
viability, T/C [46]: 101%
viability, T/C (second compound 3.16 µM, first compound 0.000949 µM): 103%
viability, T/C (second compound 3.16 µM, first compound 0.003 µM): 95.7%
viability, T/C [49]: 84.4%
viability, T/C [50]: 88.3%
viability, T/C [51]: 86.8%
viability, T/C [52]: 92.9%
viability, T/C (second compound 10 µM, first compound 0.000949 µM): 95.5%
viability, T/C (second compound 10 µM, first compound 0.003 µM): 95.1%
viability, T/C [55]: 91.2%
viability, T/C [56]: 95.1%
viability, T/C [57]: 93.4%
viability, T/C [58]: 86.9%

O=C(C=Cn1cnc(-c2cc(C(F)(F)F)cc(C(F)(F)F)c2)n1)NNc1cnccn1 + CC(CO)NC(=O)c1cc(-c2ccc(Cl)cc2)nn(-c2cnn(C)c2)c1=O
IC50 (second compound 0.1 µM): > 3 µM
IC50 (second compound 0.316 µM): > 3 µM
IC50 (second compound 1 µM): > 3 µM
IC50 (second compound 3.16 µM): > 3 µM
IC50 (second compound 10 µM): > 3 µM
viability, T/C [31]: 108%
viability, T/C [32]: 102%
viability, T/C [33]: 111%
viability, T/C [34]: 122%
viability, T/C [35]: 114%
viability, T/C [36]: 98.3%
viability, T/C [37]: 86.7%
viability, T/C [38]: 103%
viability, T/C [39]: 117%
viability, T/C [40]: 115%
viability, T/C [41]: 101%
viability, T/C [42]: 90.3%
viability, T/C [43]: 94%
viability, T/C [44]: 109%
viability, T/C [45]: 101%
viability, T/C [46]: 123%
viability, T/C [47]: 116%
viability, T/C [48]: 94.1%
viability, T/C [49]: 96.7%
viability, T/C [50]: 101%
viability, T/C [51]: 112%
viability, T/C [52]: 129%
viability, T/C [53]: 105%
viability, T/C [54]: 86.1%
viability, T/C [55]: 96.3%
viability, T/C [56]: 110%
viability, T/C [57]: 104%
viability, T/C [58]: 116%
viability, T/C [59]: 94.9%
viability, T/C [60]: 91.3%
